In article PMC10247784, “Physiological activation of human and mouse bitter taste receptors by bile acids” (Communications Biology, 2023):

Molecular target: T1, mouse Tas2r144 (Mus musculus, UniProt Q7TQB8)
T1 construct: expressed in transfected cells; host or cells: HEK293T-Gα16gust44
Test: Calcium imaging assay (FLIPR), HEK293T-Gα16gust44 cells transfected with mouse Tas2r144
Format: cell-based
Details: for Δ F/F: Tas2r144
Description: This set of bile acids was chosen because of their commercial availability in high purities, their diversity within the class of bile acids and their previous detection and quantitation in human blood. Stock solutions were prepared in DMSO.
As basal growth medium for the HEK293T-Gα16gust44 cell line[17],[59] served Dulbecco’s modified eagle medium (DMEM) (Thermo Fisher Scientific, Darmstadt, Germany) supplemented with 10 % fetal bovine serum (Sigma-Aldrich, Steinheim, Germany), 2 mM L-glutamine (Sigma-Aldrich, Steinheim, Germany), 100 units/ml penicillin (Sigma Aldrich, Steinheim, Germany) and 100 µg/ml streptomycin (Sigma Aldrich, Steinheim, Germany). Growth conditions were 37 °C, 5 % CO2 and saturated air-humidity[60].
HEK293T-Gα16gust44 cells were seeded on poly-D-lysine (10 µg/ml) coated 96-well plates to reach a confluence of 40-60 % the next day. For transient transfection 150 ng of plasmid DNA containing the receptor of interest and 0.3 µl lipofectamine 2000 (Thermo Fisher Scientific, Darmstadt, Germany) per well were used and transfection took place according to the manual of lipofectamine 2000. […] The empty vector DNA (mock) was transfected as negative control[14],[41].
Cells were loaded using the calcium-sensitive fluorescent dye Fluo-4-AM (Abcam, Cambridge, Great Britain) in the presence of 2.5 mM probenecid (Sigma-Aldrich, Steinheim, Germany) the day after transfection[13],[41]. 1 h after loading, cells were washed with C1 buffer using a BioTek Cell Washer, incubated in the dark for half an hour and washed again. For automated agonist application and measurement of fluorescence changes, a FLIPR^TETRA device (Molecular Devices, San José, United States) was used. Viability of cells was tested by application of 100 nM Somatostatin 14 (Bachem, Bubendorf, Switzerland)[42].
Measured data were negative control corrected by subtracting the signal of the mock-transfected cells and exported to Microsoft Excel using the FLIPR software ScreenWorks 4.2. In Microsoft Excel software, standardization of maximum fluorescence intensities to the basal fluorescence and normalization to the buffer-only control was done to calculate the relative fluorescence changes (ΔF/F).
Initial screening experiments performed in duplicate wells were confirmed by at least one replication and representative traces were selected for display. All dose-response relationships were determined by three independent experiments (biological replicates) performed in duplicates (technical replicates). Threshold concentrations, defined as lowest substance concentrations leading to statistically significant elevated fluorescence changes in receptor-transfected cells compared with empty vector-transfected cells, were determined using SigmaPlot with Student’s t-test to evaluate statistical significance (p < 0.01).

T1 sequence (Q7TQB8 whole entry): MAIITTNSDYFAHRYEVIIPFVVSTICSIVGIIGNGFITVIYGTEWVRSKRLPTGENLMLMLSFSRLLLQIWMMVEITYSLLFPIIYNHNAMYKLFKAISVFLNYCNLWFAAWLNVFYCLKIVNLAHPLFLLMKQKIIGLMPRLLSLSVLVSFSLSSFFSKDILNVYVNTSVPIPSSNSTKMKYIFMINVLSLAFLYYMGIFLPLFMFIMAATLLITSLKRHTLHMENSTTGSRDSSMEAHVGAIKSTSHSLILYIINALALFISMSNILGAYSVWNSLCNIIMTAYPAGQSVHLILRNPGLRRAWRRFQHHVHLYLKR

Question: Which results are given for C[C@H](CCC(=O)NCC(=O)O)[C@H]1CC[C@H]2[C@@H]3[C@H](O)C[C@@H]4C[C@H](O)CC[C@]4(C)[C@H]3C[C@H](O)[C@]12C [Glycocholic Acid, glycocholic acid]?
Answer: Δ F/F (conc. 0,01 mM): 0.007151; Δ F/F (conc. 0,1 mM): 0.04043; Δ F/F (conc. 0,03 mM): 0.015; Δ F/F (conc. 0,3 mM): 0.08047; Δ F/F (conc. 0,003 mM): 0.00267; RLU (Time 0 s): 0 RLU; RLU (Time 2 s): -31.2125 RLU; RLU (Time 4 s): -43.6447 RLU; RLU (Time 6 s): -0.4257 RLU; RLU (Time 8 s): -5.711 RLU; RLU (Time 12 s): -13.8091 RLU; RLU (Time 14 s): -0.4257 RLU; RLU (Time 16 s): -0.5597 RLU; RLU (Time 18 s): 10.0299 RLU; RLU (Time 18.781 s): -3.913 RLU; RLU (Time 20.781 s): -28.6004 RLU; RLU (Time 22.781 s): -59.2077 RLU; RLU (Time 24.781 s): -17.5148 RLU; RLU (Time 26.781 s): 37.2224 RLU; RLU (Time 28.781 s): 99.9904 RLU; RLU (Time 30.781 s): 135.498 RLU; RLU (Time 32.781 s): 202.624 RLU; RLU (Time 34.781 s): 240.201 RLU; RLU (Time 36.781 s): 276.718 RLU; RLU (Time 38.781 s): 320.611 RLU; RLU (Time 40.781 s): 324.075 RLU; RLU (Time 42.781 s): 335.112 RLU; RLU (Time 44.781 s): 371.949 RLU; RLU (Time 46.781 s): 375.35 RLU; RLU (Time 48.781 s): 395.668 RLU; RLU (Time 50.781 s): 393.283 RLU; RLU (Time 52.781 s): 432.603 RLU; RLU (Time 54.781 s): 444.104 RLU; RLU (Time 56.781 s): 419.562 RLU; RLU (Time 58.781 s): 425.176 RLU; RLU (Time 60.781 s): 431.497 RLU; RLU (Time 62.781 s): 417.317 RLU; RLU (Time 64.781 s): 465.061 RLU; RLU (Time 66.781 s): 447.834 RLU; RLU (Time 68.781 s): 427.827 RLU; RLU (Time 70.781 s): 415.079 RLU; RLU (Time 72.781 s): 432.914 RLU; RLU (Time 74.781 s): 450.52 RLU; RLU (Time 76.781 s): 421.617 RLU; RLU (Time 78.781 s): 441.46 RLU; RLU (Time 80.781 s): 426.566 RLU; RLU (Time 82.781 s): 423.408 RLU; RLU (Time 84.781 s): 393.748 RLU; RLU (Time 86.781 s): 429.403 RLU; RLU (Time 88.781 s): 405.471 RLU; RLU (Time 90.781 s): 401.169 RLU; RLU (Time 92.781 s): 422.993 RLU; RLU (Time 94.781 s): 401.134 RLU; RLU (Time 96.781 s): 381.14 RLU; RLU (Time 98.781 s): 357.346 RLU; RLU (Time 100.781 s): 380.46 RLU; RLU (Time 102.781 s): 368.041 RLU; RLU (Time 104.781 s): 369.437 RLU; RLU (Time 106.781 s): 355.75 RLU; RLU (Time 108.781 s): 354.221 RLU; RLU (Time 110.781 s): 346.013 RLU; RLU (Time 112.781 s): 352.628 RLU; RLU (Time 114.781 s): 328.654 RLU; RLU (Time 116.781 s): 301.02 RLU; RLU (Time 118.781 s): 305.388 RLU; RLU (Time 120.781 s): 301.126 RLU; RLU (Time 122.781 s): 277.354 RLU; RLU (Time 124.781 s): 278.403 RLU; RLU (Time 126.781 s): 268.257 RLU; RLU (Time 128.781 s): 264.093 RLU; RLU (Time 130.781 s): 273.404 RLU; RLU (Time 132.781 s): 241.449 RLU; RLU (Time 134.781 s): 241.405 RLU; RLU (Time 136.781 s): 246.641 RLU; RLU (Time 137.562 s): 213.654 RLU; RLU (Time 143.562 s): 221.818 RLU; RLU (Time 149.562 s): 207.299 RLU; RLU (Time 155.562 s): 180.281 RLU; RLU (Time 161.562 s): 165.822 RLU; RLU (Time 167.562 s): 177.105 RLU; RLU (Time 173.562 s): 151.305 RLU; RLU (Time 179.562 s): 140.777 RLU; RLU (Time 185.562 s): 121.278 RLU; RLU (Time 191.562 s): 122.229 RLU; RLU (Time 197.562 s): 118.034 RLU; RLU (Time 203.562 s): 110.818 RLU; RLU (Time 209.562 s): 87.4457 RLU; RLU (Time 215.562 s): 107.926 RLU; RLU (Time 221.562 s): 45.9427 RLU; RLU (Time 227.562 s): 30.7626 RLU; RLU (Time 233.562 s): 60.9884 RLU; RLU (Time 239.562 s): 58.9568 RLU; RLU (Time 245.562 s): 54.3153 RLU; RLU (Time 293.562 s): 51.7559 RLU; RLU (Time 299.562 s): 74.5788 RLU; RLU (Time 305.562 s): 55.2043 RLU; RLU (Time 311.562 s): 49.25 RLU; RLU (Time 317.562 s): 60.65 RLU; RLU (Time 323.562 s): 55.6278 RLU; RLU (Time 329.562 s): 55.0836 RLU; RLU (Time 335.562 s): 69.3242 RLU; RLU (Time 341.562 s): 66.607 RLU; RLU (Time 347.562 s): 79.0246 RLU; RLU (Time 353.562 s): 84.7807 RLU; RLU (Time 359.562 s): 64.803 RLU; Activation threshold concentration Tas2r144 (p < 0.01 vs empty vector): 100 µM
